Source: paper PMC10254852, “Design, Synthesis and Anticancer Evaluation of Nitroimidazole Radiosensitisers” (Molecules, 2023)
Where two headings read alike, the source gives them in different places.

What was measured:
FaDu cells = assay: In vitro cytotoxicity, 4 h exposure oxic/anoxic, 5-day regrowth, sulforhodamine B; assay type: cell-based; conditions: for IC50: Homo sapiens, 4 h exposure, mean ± SEM; for HCR: IC50(oxic)/IC50(anoxic)
Text: (§1) This allowed derivation of hypoxia cytotoxicity ratios (HCR) as IC50(oxic)/IC50(anoxic) in an HCT116 subclone HCT116/54C and two HNSCC cell lines, FaDu and UT-SCC-74B (Table 2).
(§2) HCT116/54C is an HCT116 subline that originated from a mixed culture with UT-SCC-54C cells, which was supplied alongside UT-SCC-74B by Prof. Bradly Wouters (University Health Network, Toronto, ON, Canada). HCT116/54C and UT-SCC-74B cells were passaged in minimum essential media (MEM, ThermoFisher Scientific, Waltham, MA, USA) with 10% foetal calf serum (FCS, Moregate Biotech, Hamilton, New Zealand), 4.5 mg/mL D-glucose (Sigma-Aldrich, St. Louis, MO, USA) and 20 mM HEPES (Sigma-Aldrich). FaDu cells were sourced from American Type Culture Collection and cultured in αMEM (ThermoFisher Scientific) with 10% FCS. All cell lines were confirmed mycoplasma-free by PlasmoTest (InvivoGen, San Diego, CA, USA) and were derived from STR-authenticated cryopreserved stocks. Log-phase cells were seeded into 96-well plates at 800 cells/well for HCT116/54C and 1500 cells/well for FaDu. […] After drug washout, cells were grown and stained as for the oxic IC50 assays. The hypoxic cytotoxicity ratio HCR was determined as HCR = IC50(oxic)/IC50(anoxic).

HCT116/54C cells [1] = assay: as above; assay type: cell-based, human; conditions: HCT116/54C; for HCR: IC50(oxic)/IC50(anoxic); for IC50: Homo sapiens, 4 h exposure, mean ± SEM, n = 3–4
Text: as §1, §2

UT-SCC-74B cells = assay: as above; assay type: cell-based, human; conditions: for IC50: Homo sapiens, 4 h exposure, mean ± SEM; for HCR: IC50(oxic)/IC50(anoxic)
Text: as §1, §2

HCT116/54C cells [2] = assay: In vitro radiosensitisation under anoxia, clonogenic survival; assay type: cell-based, human; conditions: compound 1 mM, radiation dose for 1% survival/radiation dose for 1% survival with compound, mean ± SEM
Method: Next, we evaluated in vitro radiosensitisation by using a representative subset of nitroimidazole compounds in HCT116/54C cells with a clonogenic survival endpoint. Radiosensitisation was determined by treating cells under anoxia with a range of radiation doses alone and with compounds at equimolar doses (1 mM). Sensitiser enhancement ratios (SER) were calculated as the ratio of radiation dose required for 1% clonogenic survival alone or with compound (Table 3).
Cells were seeded onto 96-well plates at 10^5 cells per well and allowed to attach for 2 h. […] The plates were irradiated (Eldorado 78 ^60Co teletherapy unit, ~2 Gy/min) with 15 Gy under anoxia at room temperature for SR experiments. A metal wedge placed on the top of the metal chamber was used to achieve a graduated radiation dose across the plate, varying from 7 to 29 Gy, calibrated by Fricke dosimetry with ammonium thiocyanate as previously described for SER experiments. The control plate (compound alone, no radiation) was left inside the anaerobic chamber at room temperature during the irradiation period. After treatment, the cells were trypsinized and suspended in usual media + 1% penicillin-streptomycin (ThermoFisher Scientific), and 10-fold serial dilutions were plated for clonogenic survival. After 10 days, plates were stained with methylene blue (2 g/L in EtOH/H2O, 1:1 v/v) and colonies with more than 50 cells were counted. The surviving fraction (SF) was determined as: SF = PE(irradiated)/PE(control) where the plating efficiency (PE) = (No. of colonies)/(No. of cells plated). SF was plotted against radiation dose. Survival ratios (SR) were calculated: SR = (cell survival with radiation)/(cell survival with drug + radiation). Sensitizer enhancement ratios (SER) were calculated: SER = (radiation dose for 1% survival without compound)/(radiation dose for 1% survival with compound).

HCT116/54C tumours = assay: Tumour radiosensitisation: ex vivo clonogenic assay; assay type: in vivo, NIH-III mice
Method: Specific pathogen-free six- to eight-week-old female NIH-III mice, bred in the Vernon Jansen Unit, University of Auckland, were used for animal experiments. Animals had ad libitum access to food and water and were maintained in microisolator cages on a 12 h light/dark cycle. All treatments were administered by i.v. injection at a dose of 2.2 mmol/kg and injection volume of 10 mL/kg. Compounds 2, 34 and 38 were administered as solutions in saline containing 1% DMSO or for 9–12 as solutions in saline containing 2 molar equivalents of NaHCO3. Control animals received an i.v. injection of saline at 10 mL/kg. All animal experiments were conducted under the auspices of the University of Auckland Animal Ethics Committee (approval 1781).
Compounds were evaluated for in vivo radiosensitisation of hypoxic cells in HCT116/54C and UT-SCC-74B human tumour xenografts using clonogenic survival as an endpoint, using previously report methods. Tumours were grown subcutaneously on the flanks of NIH-III mice by injecting 5 × 10^6 HCT116/54C cells or UT-SCC-74B cells. Once tumours reached a volume of approximately 250 mm^3, mice were randomly assigned to 4 treatment groups and treated with: (A) vehicle control, (B) 10 Gy RAD only, (C) sensitiser only, or (D) sensitiser given before 10 Gy RAD. Drugs were administered as a single i.v. dose at 2.2 mmol/kg. […] Tumours were excised 18 h after treatment, and tumour cells were dissociated enzymatically and plated to determine the number of surviving (clonogenic) cells per gram of tumour tissue. SF and SR were calculated as described above. Statistical significance of drug effects was tested using one-way ANOVA with Sidak tests for multiple comparisons vs. radiation alone (Table 5).

[3] = anoxic, n = 3–4, read-out: IC50 Anoxic
[4] = oxic, n = 3–4, read-out: IC50 Oxic

SMILES | IC50 (FaDu cells; [3]) [mM] | IC50 (FaDu cells; [4]) [mM] | HCR (FaDu cells) | HCR (HCT116/54C cells [1]) | IC50 (HCT116/54C cells [1]; anoxic, read-out: IC50 Anoxic) [mM] | IC50 (HCT116/54C cells [1]; oxic, read-out: IC50 Oxic) [mM] | IC50 (UT-SCC-74B cells; [3]) [mM] | IC50 (UT-SCC-74B cells; [4]) [mM] | HCR (UT-SCC-74B cells) | SER at 1 mM (HCT116/54C cells [2]) | Sensitisation Ratio (HCT116/54C tumours; 2.2 mmol/kg i.v. 5 min prior to 10 Gy radiation, surviving fraction after radiation/surviving fraction after drug + radiation) | enhancement of tumour killing of radiotherapy (RAD vs drug + RAD) (HCT116/54C tumours; 2.2 mmol/kg i.v. + 10 Gy, one-way ANOVA)
COCCNS(=O)(=O)Cn1cncc1[N+](=O)[O-] [Compound 37] | 2.1 ± 0.04 | 12 ± 1.9 | 5.7 | 2.9 | 4 ± 0.7 | 11.4 ± 1 |  |  |  |  |  | 
Cc1ncc([N+](=O)[O-])n1CCS(=O)(=O)NCCCN1CCOCC1 [Compound 44] | 7.8 ± 0.7 | > 16 | >2.0 | >2.0 | 10.3 ± 1.5 | > 21 | 7.1 ± 1.5 | 13.2 ± 2 | 1.9 |  |  | 
Cc1ncc([N+](=O)[O-])n1CCS(=O)(=O)N1CCN(C)CC1 [Compound 43] | 8.6 ± 0.6 | 13.3 ± 2.5 | 1.6 | 1.2 | 9.9 ± 0.3 | 11.7 ± 1.3 |  |  |  |  |  | 
Cc1ncc([N+](=O)[O-])n1CCS(=O)(=O)N1CCC(N(C)C)CC1 [Compound 46] | 1.3 ± 0.1 | 9.5 ± 2 | 7.3 | 8.6 | 2 ± 0.3 | 16.9 ± 1.4 | 1.9 ± 0.2 | 8.1 ± 0.9 | 4.4 |  |  | 
Cc1ncc([N+](=O)[O-])n1CCS(=O)(=O)NCCO [Compound 41] | > 22 | > 25 |  | >1.1 | 15.5 ± 2.6 | > 18 | 13.7 ± 3.7 | > 21 | >1.5 | 1.16 ± 0.01 |  | 
O=[N+]([O-])c1cncn1CCS(=O)(=O)NCCO [Compound 8] | 6.6 ± 0.6 | > 24 | >3.6 | >2.4 | 9 ± 0.9 | > 22 | 10.9 ± 1.3 | > 22 | >2.0 | 1.27 ± 0.00 |  | 
O=[N+]([O-])c1nccn1CCS(=O)(=O)NCCO [Compound 6] | 1.2 ± 0.2 | 17.8 ± 2.2 | 14.9 | >7.3 | 2.2 ± 0.04 | > 16 | 3 ± 0.6 | > 20 | >6.6 | 1.39 ± 0.01 |  | 
O=[N+]([O-])c1cncn1CCN1CCOCC1 [Compound 3, nimorazole, reference compound] | 13.2 ± 3.4 | > 20 | >1.5 |  | > 20 | > 25 |  |  |  | 1.20 ± 0.01 |  | 
COCCNS(=O)(=O)CCn1c([N+](=O)[O-])cnc1C [Compound 40] | 8 ± 0.5 | > 22 | >2.7 | >1.8 | 11 ± 0.4 | > 20 |  |  |  |  |  | 
COCCNS(=O)(=O)CCn1ccnc1[N+](=O)[O-] [Compound 35] | 0.81 ± 0.12 | 16.5 ± 1.6 | 20.4 | >16 | 0.97 ± 0.16 | > 16 |  |  |  |  |  | 
O=[N+]([O-])c1cncn1CCS(=O)(=O)NCCOP(=O)(O)O [Compound 12] |  |  |  |  |  |  |  |  |  |  | 3.32 | significantly enhanced the tumour killing of radiotherapy
O=[N+]([O-])c1nccn1CCS(=O)(=O)NCCN1CCOCC1 [Compound 36] | 0.69 ± 0.04 | 7.3 ± 0.6 | 10.6 | 12.9 | 0.71 ± 0.13 | 9.2 ± 1.1 | 1.6 ± 0.3 | 11.9 ± 1.5 | 7.6 | 1.57 ± 0.00 |  | 
COCCNS(=O)(=O)CCn1cncc1[N+](=O)[O-] [Compound 39] | 7.2 ± 0.2 | > 19 | >2.6 | >1.9 | 13 ± 1.3 | > 25 |  |  |  |  |  | 
COCCNS(=O)(=O)Cn1ccnc1[N+](=O)[O-] [Compound 33] | 0.09 ± 0.01 | 4 ± 1.2 | 46.6 | >51 | 0.12 ± 0.002 | > 6.2 | 0.19 ± 0.02 | 3.7 ± 0.8 | 19.9 |  |  | 
Cc1ncc([N+](=O)[O-])n1CCS(=O)(=O)NCCN1CCCCC1 [Compound 45] | 1.7 ± 0.4 | 4.8 ± 0.3 | 2.8 | 5.0 | 2.4 ± 0.4 | 11.8 ± 1.5 |  |  |  |  |  | 
